Assay results published in patent US11517617B2, “Methods and compositions for preventing influenza infection” (THE UNIVERSITY OF MELBOURNE, priority 2017, dated 2022).
Where two headings read alike, the source gives them in different places. No end group written: not given here.

How the values were obtained:
[1] = test system: memory CD8^+ T cells within PBMCs; format: cell-based, human
[2] = test system: CD8^+ T cells; assay: In vitro screening and validation in HLA-A*02:01-expressing human PBMCs, CD8^+ T cell lines, IFNγ/TNF ICS; format: cell-based; settings: for CD8^+ T cell response hierarchy of individual peptides: HLA-A*0201^+ donors, dissection of pools into individual peptides; for donors with response / CD8^+ T cell response, median: T cell lines towards individual peptides, n=6; for ICS responses in healthy A2:01+ donors: 10 days culture with 10 μM peptide and IL-2, re-stimulation 1 μM
From the text: As a next step, the IBV-specific CD8^+ T cell responses towards the 67 LC/MS-identified IBV-peptides in HLA-A*02:01-expressing individuals were dissected. CD8^+ T cell lines specific for each of the 6 peptide pools were established, and then re-stimulated cells with the cognate pool in an IFNγ/TNF ICS assay (FIG. 2f).
To validate these responses independently of the peptide pools, CD8^+ T cell lines were established towards individual immunogenic peptides (FIG. 2i). […] Thus, these thorough in vivo and in vitro analyses identified 5 novel peptides recognized by CD8^+ T cells in complex with the HLA-A*02:01 molecule, with BHA543-551 being immunodominant amongst the peptides tested, in both mice and humans.
Peripheral blood mononuclear cells (PBMC) from healthy A2:01+ donors were cultured in the presence of antigens (10 μM peptide) for 10 days in the presence of IL-2 (10 U/ml). On day 10 PBMCs were stimulated with peptides (1 μM) for 5 hours in the presence of BFA. Cells were surface stained for CD3 and CD8 and intracellularly stained for IFNγ and TNF using the BD cytofix/cytoperm kit according to the manufacturer's instructions (BD Biosciences).
Any pools with positive ICS responses were then dissected to their individual peptides.

[3] = test system: CD8+ T cells; set-up: species or system transgenic HLA-A24 mice; settings: mouse, in vivo
[4] = test system: CD8^+ T cells; set-up: species or system A24 mice; settings: mouse
[5] = test system: CD8^+ T cells; set-up: species or system HHD-A2 mice; settings: mouse, in vivo
[6] = test system: tetramer^+ CD8^+ T cells; format: cell-based, human
[7] = test system: human lung CD8^+ T cells; assay: Ex vivo tetramer detection in human lung samples from deceased organ donors; format: cell-based; settings: n=3 lung donors
From the text: As human memory CD8^+ T cells also reside outside the circulation, a rare set of human lung samples from deceased organ donors (n=3) were used to assess the presence of universal A2/PB1413^+CD8^+ T cells at the site of infection. CD8^+ T cells specific for A2/M158 and A2/PB1413, but not A2/BHA543 were detected within human lung CD8^+ T cells (2/3 donors for either specificity, FIG. 3f). […] Although based on a limited number of donors, this analysis indicates the presence of universal A2/PB1413^+ tissue-resident memory CD8^+ T cell pools in the human lung.

[8] = test system: tetramer^+ CD8^+ T cells; assay: Tetramer staining of IAV- or IBV-specific CD8^+ T cell lines established in vitro from healthy adult PBMC; format: cell-based, human; settings: for tetramer^+ of CD8^+ T cells, median: n=11
From the text: Conversely, the universal A2/PB1413 epitope within the IBV-specific T cell lines was immunodominant (0.3%; detected in 8/11 donors) over the IBV-specific A2/BHA543 (0.11%; detected in 10/11 donors) and A2/BNS1266 epitopes (0.01%) (FIG. 4c).

[9] = test system: CD8^+ T cells
[10] = biological target: T1, HLA-A*02:01 (Homo sapiens, UniProt P04439, D140Y/D185E/D98H/E176V/E277Q/G131W/G231S/I119V/I121R/I166T/I218V/L300P/L318F/N151K/N90K/P208A/P217A/Q86G/Q94H/R138H/R169H/T345S); settings: reference 34; cited from earlier work
[11] = test system: CD8+ T Lymphocytes; format: cell-based, human
[12] = test system: CD8^+ T cells; assay: Recall responses in HHD-A2 mice primed with B/Malaysia and challenged with B/Phuket; format: in vivo; settings: for number of secondary IFNγ^+TNF^+ CD8^+ T cells in the spleen versus primary infection: spleen d8 after B/Phuket challenge, not statistically significant
From the text: To further verify the immunogenicity of these epitopes in recall responses, HHD-A2 mice were primed i.n. with B/Malaysia, infected with the heterologous strain B/Phuket 6 weeks later and then assessed CD8^+ T cells against the main epitopes A2/BHA543-551 and A2/BNS1266-274 in the spleen on d8 after challenge.

[13] = biological target: T1, HLA-A*02:01; assay: Thermal stability of pHLA-A*02:01 complex (Tm); format: binding
[14] = test system: CD8^+ T cells; format: cell-based, human
[15] = test system: CD8^+ T cells; format: cell-based, human; remark: listed apart in the source
[16] = test system: tetramer^+CD8^+ T cells; format: cell-based, human
[17] = IAV-specific CD8^+ T cell lines

For “FEDLRVLSA (Influenza A virus) [NP338-345]”, the “memory CD8^+ T cell responses (IFN-γ production after peptide re-stimulation)” value [1] was “robust memory CD8^+ T cell responses”.
With “YLNPGNYSM (Influenza B virus) [M1132-140]” the “CD8^+ T cell response hierarchy of individual peptides” value (“CD8^+ T cell response hierarchy” for short) [2] was “Subdominant responses” and the donors with response [2] was “single donor”.
For “IYHPGGNKL (Influenza B virus) [PB2245-253]”, the “immunogenicity (induction of IFNγ production in CD8+ T cells after peptide re-stimulation)” value (from here on “immunogenicity”) [3] was “immunogenic”.
For “IYFSPIRVTF (Influenza B virus) [NP164-173]”, the “immunogenicity” value [3] was “immunogenic”.
In the case of “SFSFGGFTF (Influenza A virus) [PB2322-330]”, the “in vivo CD8^+ T cell responses” value [4] is reported as “targeted”.
For “AAYEDLRVL (Influenza B virus) [NP392-400]”, the “immunogenicity” value [3] was “immunogenic”.
For “TYQWVLKNL (Influenza B virus) [PB2550-558]”, the “immunogenicity” value [3] was “immunogenic”.
In the case of “SYLIRALTL (Influenza A virus) [PB1216-224]”, the “in vivo CD8^+ T cell responses” value [4] is reported as “targeted”.
With “VLSQFGQEHRL (Influenza B virus) [NS1264-274]” the “CD8+ T cell responses (IFNγ and TNF production)” value [5] was “detected”, the “CD8^+ T cell responses at the site of infection” value [5] was “targeted” and the “CD8^+ T cell response hierarchy” value [2] was “Subdominant responses”. The “CD8^+ T cell response, median” value [2] was 0.025 % of CD8^+ T cells and the donors with response [2] was “single donor”.
In the case of “GILGFVFVL [M158-66, GILGFVFVL, reference compound]”, the “CD38^+/Ki-67^+ expression of tetramer-positive CD8^+ T cells” value [6] is reported as “increase”, the “increase in frequency of epitope-specific CD8^+ T cells in blood versus healthy donors” value [6] is reported as 4.3 fold and the “individuals with detected epitope-specific CD8^+ T cells” value [6] is reported as 100%. For the same sequence, the “epitope-specific CD8^+ T cells detected within human lung CD8^+ T cells” value [7] was 2/3, the “donors with detected tetramer^+ cells” value [8, 17] was 11 donors and the “tetramer^+ of CD8^+ T cells, median” value [8, 17] was 3.9%. For the same sequence, the EC50 [9] was 8.1 nM and the “Tm (temperature required to unfold 50% of the protein) of pHLA-A*02:01 complex” value [10] was 65 °C.
With “SYINRTGTFEF (Influenza A virus) [PB1482-492]” the “in vivo CD8^+ T cell responses” value [4] was “targeted”.
For “RYGFVANF (Influenza A virus) [PB1498-505]”, the “in vivo CD8^+ T cell responses” value [4] was “targeted”.
With “VSDGGPNLY (Influenza A virus) [PB1591-599]” the “memory CD8^+ T cell responses (IFN-γ production after peptide re-stimulation)” value [1] was “robust memory CD8^+ T cell responses”.
For LYSDILLKF (Influenza B virus) [NA32-40], the “immunogenicity” value [3] was “immunogenic”.
In the case of “SLNDDGLDNHTILL (Influenza B virus) [HA538-551]”, the “CD8+ T cell responses (IFNγ and TNF production)” value [5] is reported as “detected” and the “CD8^+ T cell response hierarchy” value [2] is reported as “Subdominant responses”.
With “NFAMELPSF (Influenza B virus) [PB1503-511]” the “CD8+ T cell responses (IFNγ) after single peptide re-stimulation” value (shortened to “CD8+ T cell responses (IFNγ)”) [11] was “immunogenic response”.
For “TYHSYANNI (Influenza B virus) [NA213-221]”, the “immunogenicity” value [3] was “immunogenic”.
In the case of “KYVLFHTSL (Influenza B virus) [PA457-465]”, the “CD8+ T cell responses (IFNγ)” value [11] is reported as “immunogenic response”.
In the case of GLDNHTILL [HA543-551, GLDNHTILL], the “CD8+ T cell responses (IFNγ and TNF production)” value [5] is reported as “CD8+ T cell responses were targeted”, the “CD8^+ T cell response, mean” value [5] is reported as 5 % of CD8^+ T cells and the “CD8^+ T cell responses at the site of infection” value [5] is reported as “targeted”. The “polyfunctional IFNγ^+TNF^+IL-2^+ CD8^+ T cells” value ([12]; primary infection) was 0.14 % of CD8^+ T cells, the “polyfunctional IFNγ^+TNF^+IL-2^+ CD8^+ T cells” value ([12]; secondary infection, p=0.013) was 2.14 % of CD8^+ T cells and the “number of secondary IFNγ^+TNF^+ CD8^+ T cells in the spleen versus primary infection” value [12] was roughly 27 fold. For the same sequence, the “ICS responses in healthy A2:01+ donors” value [2] was “detected across multiple donors”, the “CD8^+ T cell response hierarchy” value [2] was “immunodominant epitope” and the “CD8^+ T cell response, median” value [2] was 7.35 % of CD8^+ T cells. For the same sequence, the donors with response [2] was 6/6, the “CD38^+/Ki-67^+ expression of tetramer-positive CD8^+ T cells” value [6] was “increase” and the “increase in numbers of epitope-specific CD8^+ T cells versus healthy donors” value [6] was 2.2 fold. The “individuals with detected epitope-specific CD8^+ T cells” value [6] was 75%, the “epitope-specific CD8^+ T cells detected within human lung CD8^+ T cells” value [7] was “not” and the “donors with detected tetramer^+ cells” value ([8]; IBV-specific T cell lines) was 10/11. The “tetramer^+ of CD8^+ T cells, median” value ([8]; IBV-specific T cell lines) was 0.11%, the “Tm (temperature required to unfold 50% of the protein) of pHLA-A*02:01 complex” value [13] was roughly 72 °C and the polyfunctionality [14] was “inferior”. The “additional low avidity CD8^+ T cells detected by Q115E staining” value [15] was “could be detected”, the “d14 frequency lower than universal A2/PB1413^+CD8^+ T cells” value [16] was 5 fold and the EC50 [9] was 0.78 nM.
With “YFSPIRVTF (Influenza B virus) [NP165-173]” the “immunogenicity” value [3] was “immunogenic”.
For “SQFGQEHRL (Influenza B virus) [NS1266-274]”, the “CD8+ T cell responses (IFNγ and TNF production)” value [5] was “CD8+ T cell responses were targeted”, the “CD8^+ T cell response, mean” value [5] was 1.8 % of CD8^+ T cells and the “CD8^+ T cell responses at the site of infection” value [5] was “targeted”. The “number of secondary IFNγ^+TNF^+ CD8^+ T cells in the spleen versus primary infection” value [12] was roughly 27 fold, the “ICS responses in healthy A2:01+ donors” value [2] was “detected across multiple donors” and the “CD8^+ T cell response hierarchy” value [2] was “Subdominant responses”. The “CD8^+ T cell response, median” value [2] was 0.035 % of CD8^+ T cells, the donors with response [2] was “single donor” and the “tetramer^+ of CD8^+ T cells, median” value ([8]; IBV-specific T cell lines) was 0.01%.
For “YYSTAASSL (Influenza B virus) [HA552-560]”, the “CD8+ T cell responses (IFNγ)” value [11] was “immunogenic response”.
With “TYQWIIRNW (Influenza A virus) [PB2549-557]” the “in vivo CD8^+ T cell responses” value [4] was “targeted”.
